The values below come from PMC10791897, “Ligand-binding properties of XaffOBP9, a Minus-C odorant-binding protein from Xyleborus affinis (Coleoptera: Curculionidae: Scolytinae)” (Frontiers in Physiology, 2024).

The target in one assay is XaffOBP9. The experiment in a line: Fluorescence binding assays of XaffOBP9 (1-NPN titration and competitive binding). More on the design: species or system Xyleborus affinis. As to conditions: for pKi: calculated from IC50: Ki = [IC50]/(1 + [1-NPN]/K1-NPN); for pIC50: competitor displacing 1-NPN, 2 μM protein, 50 mM Tris-HCl pH 7.4. As to the method: (§1) The purified XaffOBP9 was dissolved at a final concentration of 2 μM in 50 mM Tris-HCl (pH 7.4). The binding ability of the fluorescent probe to XaffOBP9 was measured using the Infinite 200 PRO microplate plate reader (Tecan, Mannedorf, Switzerland). […] These compounds (>90% puity) were purchased from Yuanye Bio-Technology (Shanghai, China), Alading Chemical Industry (Shanghai, China) and Sigma-Aldrich (MO, United States). Binding data were collected as three independent measurements. […] The data analysis and binding curve calculations were processed in Prism 8 (Graphpad Software, San Diego, CA, United States).

Another assay relates to XaffOBP9 mutant L114A. The experiment in a line: Fluorescence binding assays of mutant L114A. More on the design: species or system Xyleborus affinis. As to conditions: for binding of ligand to L114A mutant protein: fluorescence binding assays, classes by Ki as in Figure 8 legend. As to the method:
(§2) The purified XaffOBP9 was dissolved at a final concentration of 2 μM in 50 mM Tris-HCl (pH 7.4). The binding ability of the fluorescent probe to XaffOBP9 was measured using the Infinite 200 PRO microplate plate reader (Tecan, Mannedorf, Switzerland). […] Binding data were collected as three independent measurements. […] The data analysis and binding curve calculations were processed in Prism 8 (Graphpad Software, San Diego, CA, United States).
(§3) Three types of XaffOBP9 mutants (L71A, L114A, Y106A) were generated using the Fast Site-Directed Mutagenesis Kit (Tiangen, Beijing, China) according to manufacturer protocol. Sited-directed mutagenesis primers were listed in Supplementary Table S1 The PCR amplification reaction was 95°C for 2 min, followed by 94 C for 20 s, 55 C for 10 s, 68 C 2.5 min, with final incubation at 68 °C for 5 min. The three mutant proteins were then expressed and purified following the procedures used for wild-type XaffOBP9.

For another assay, the system named is X. affinis. The conditions noted are these: cited from earlier work; for attraction of X. affinis: 2020.
The target in another assay is XaffOBP9 mutant Y106A. Kind of assay: Fluorescence binding assays of mutant Y106A. More on the design: species or system Xyleborus affinis. As to the method: as §2, §3
The target of a further assay is XaffOBP9 mutant L71A. Kind of assay: Fluorescence binding assays of mutant L71A. The conditions noted are these: read-out: Kd with 1-NPN. On the set-up: species or system Xyleborus affinis. How it is done:
as §1, §3

pIC50, pKd, pKi: −log10 of the molar value. “Also recorded” adds a separate entry of the source. Read-outs that look alike come from different tables or passages of the source.

In the case of `C=C1C2CCC3C2C(C)(C)CCCC13C` (single isomer, unassigned; (+)) [(+)-Longifolene], on XaffOBP9, the pKi (usually −log10 of the Ki, conventionally taken in molar units) is 4.78 and the pIC50 (as a rule, −log10 of the IC50, conventionally taken in molar units) is 4.71. Besides, the “binding of ligand to L114A mutant protein” value (“binding of ligand” below) in the assay on XaffOBP9 mutant L114A is “lost its ability to bind”. Also, in the assay with X. affinis (ref Xu et al.), the “attraction of X. affinis” value was “attraction effect”.

On to `CC(C)(O)c1ccccc1` [2-Phenyl-2-propanol], for which, at XaffOBP9, the pKi was 4.92 and the pIC50 is 4.85. Also, the “binding of ligand” value in the assay with XaffOBP9 mutant L114A is “lost its ability to bind”. In addition, in the assay on X. affinis (ref Xu et al.), the “attraction of X. affinis” value was “attraction effect”.

With `C=C1CCC2CC1C2(C)C` (stereo not drawn) [(-)-β-pinene], on XaffOBP9, the pKi was 4.86 and the pIC50 is 4.80.

For `C=C(C)[C@@H]1CC=C(C)CC1` [(S)-(-)-Limonene], at XaffOBP9, the pKi was 4.85 and the pIC50 is 4.79. In addition, the “binding of ligand” value in the assay on XaffOBP9 mutant L114A is “lost its ability to bind”.

Regarding `CC1=CC(O)C2CC1C2(C)C` [(S)-cis-Verbenol], on XaffOBP9, the pKi was 4.86 and the pIC50 was 4.79. Further, the “binding of ligand” value in the assay with XaffOBP9 mutant L114A is reported as “weakly bound”. Further, the “attraction of this rubber bark beetle” value in the assay with X. affinis (aggregation pheromone, ref Brand et al., 1975, Chen et al., 2019) is reported as “exhibits attraction effects”.

On to `C=C1C2CCC(C2)C1(C)C` (stereo not drawn) [Camphene], for which, at XaffOBP9, the pKi was 5.10 and the pIC50 is 5.03.

As to `c1ccc(Nc2cccc3ccccc23)cc1` [Ligand 1-NPN, N-phentl-1-naphthylamine, reference compound], the pKd on XaffOBP9 (read-out: dissociation constant K 1-NPN, titration of 2 μM protein with 1-NPN, Scatchard plot) is 5.23; at XaffOBP9 mutant Y106A (read-out: Kd with 1-NPN, mutant Y106A) it was 5.06; at XaffOBP9 mutant L114A (read-out: Kd with 1-NPN, mutant L114A), 4.83; at XaffOBP9 mutant L71A, 5.22.

Turning to `CC1=CCC2C(C1)C2(C)C` (stereo not drawn) [Ligand 3-Carene, 3-Carene], at XaffOBP9, the pKi was 4.97 and the pIC50 was 4.91. Besides, in the assay with XaffOBP9 mutant L114A, the “binding of ligand” value is reported as “lost its ability to bind”.

With `CCCCCCCCCCCCCCCC(=O)OC` [Methyl palmitate], in the assay with XaffOBP9 (competitive fluorescence binding curves), the “reduction of relative fluorescence intensity of the [XaffOBP/1-NPN] mixture” value is reported as “did not reduce the relative fluorescence intensity to less than half”.

With `C=CC(=C)CCC=C(C)C` [Myrcene], at XaffOBP9, the pKi is 5.01 and the pIC50 was 4.94. The “binding of ligand” value with XaffOBP9 mutant L114A was “lost its ability to bind”.

On to `C=C1CCC2(C(C)C)CC12` (stereo not drawn) [Sabinene], for which, on XaffOBP9, the pKi was 4.81 and the pIC50 is 4.74. The “binding of ligand” value in the assay with XaffOBP9 mutant L114A is on record as “lost its ability to bind”.

Take `CC1=CCC(=C(C)C)CC1` [Terpinolene]: on XaffOBP9, the pKi is 4.95 and the pIC50 was 4.88. In addition, in the assay with XaffOBP9 mutant L114A, the “binding of ligand” value is “lost its ability to bind”.

Consider `CCCCCCCCCCCCCC` [Tetradecane], for which, on XaffOBP9, the pKi is 4.87 and the pIC50 was 4.80. In addition, the “change of binding affinity of Y106A compared with WT” value with XaffOBP9 mutant Y106A (fluorescence binding assays) is recorded as “noticeable decrease in its affinity; also recorded: certain decrease in binding”. Besides, in the assay with XaffOBP9 mutant L114A, the “binding of ligand” value was “lost its ability to bind”. In addition, the “attraction of X. affinis” value in the assay on X. affinis (ref Xu et al.) is reported as “attraction effect”.

As for `CCO` [ethanol], in the assay on X. affinis (attractant lure, ref Ranger et al., 2011, Steininger et al., 2015, Lehenberger et al., Cavaletto et al., 2021), the “attraction of X. affinis” value is listed as “only weakly attracted”.

On to `Cc1cccc(C(C)C)c1` [m-Cymene], for which, on XaffOBP9, the pKi was 4.83 and the pIC50 is 4.76. The “binding of ligand” value with XaffOBP9 mutant L114A was “weakly bound”.

On to `CC1=CC[C@H]2[C@H]3[C@@H]1[C@]2(C)CC[C@H]3C(C)C` [α-copaene], for which, on XaffOBP9, the pKi is 4.94 and the pIC50 is 4.88. Also, the “binding of ligand” value in the assay with XaffOBP9 mutant L114A was “weakly bound”.

`CC1=CCC2CC1C2(C)C` (stereo not drawn) [α-pinene]: at XaffOBP9, the pKi is 5.07 and the pIC50 was 5.00. In addition, in the assay with X. affinis (trapping investigations, ref Miller and Rabaglia, 2009), the “effect on attraction of X. affinis” value is listed as “enhance the attractive effect of ethanol”.
